These results are taken from article PMC9106491, “In Vitro Antioxidant, Anti-Inflammatory, and Digestive Enzymes Inhibition Activities of Hydro-Ethanolic Leaf and Bark Extracts of Psychotria densinervia (K. Krause) Verdc” (Advances in Pharmacological and Pharmaceutical Sciences, 2022).

Assay [1] is described as follows: DPPH free radical scavenging. As to conditions: 30 mins, 517 nm. The method, then:
The DPPH scavenging assay was conducted by the method of Sanchez-Moreno et al. with some modifications. DPPH (0.1 mM) stock solution was diluted in methanol, and the absorbance was adjusted to 1.5 at 517 nm wavelength. […] extracts (500 μl) at different concentrations (15.62, 31.25, 62.5, and 250 μg/ml) were mixed with 2000 μl of DPPH solution and read with the aid of a spectrophotometer at 517 nm after 30 mins of incubation in the dark.
A general note: The DPPH test is a chemical assay of radical scavenging.

A further assay in a line: ABTS radical scavenging. The following applies: 15 mins, 734 nm. As to the method:
ABTS scavenging activity was evaluated by the discoloration of the cationic radical ABTS^∗^+, as per the technique described by Arnao et al. with some modifications. Briefly, the ABTS reagent was obtained by mixing an ethanolic solution of ABTS (7.4 mM) and an aqueous solution of potassium persulfate (2.6 mM). After mixing, the solution was incubated in the dark for 24 hours. The ABTS solution obtained was diluted until an absorbance of 1.5 was obtained at 734 nm. Two hundred microliters of each extract or catechin at different concentrations (15.62, 31.25, 62.5, and 250 μg/ml) was added to 1800 μl of the ABTS solution prepared above. The mixture was incubated in the dark for 15 mins, and the absorbance was read with a spectrophotometer at 734 nm against the blank. Catechin was used as the standard. […] The IC50 was calculated as in DPPH.

Assay [2] has as its target T1, pancreatic cholesterol esterase (Sus scrofa, UniProt A0A286ZKB1).
T1 sequence (A0A286ZKB1 95-682): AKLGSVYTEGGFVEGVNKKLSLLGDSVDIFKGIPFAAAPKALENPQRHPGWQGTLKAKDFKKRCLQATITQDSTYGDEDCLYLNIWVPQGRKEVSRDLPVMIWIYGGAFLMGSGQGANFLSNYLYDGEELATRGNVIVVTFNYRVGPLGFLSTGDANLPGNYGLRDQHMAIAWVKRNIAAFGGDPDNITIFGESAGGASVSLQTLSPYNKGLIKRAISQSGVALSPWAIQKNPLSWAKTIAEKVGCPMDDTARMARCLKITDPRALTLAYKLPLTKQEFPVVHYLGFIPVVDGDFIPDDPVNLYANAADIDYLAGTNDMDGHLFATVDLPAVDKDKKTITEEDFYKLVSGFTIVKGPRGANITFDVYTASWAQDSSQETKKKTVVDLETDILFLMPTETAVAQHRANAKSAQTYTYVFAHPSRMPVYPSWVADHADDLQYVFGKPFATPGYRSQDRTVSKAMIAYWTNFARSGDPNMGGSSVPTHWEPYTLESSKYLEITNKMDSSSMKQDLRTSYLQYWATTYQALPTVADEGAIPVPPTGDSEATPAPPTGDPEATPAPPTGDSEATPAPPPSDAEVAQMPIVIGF
The following applies: read-out: Cholesterol esterase IC50; p-NPB substrate.
Experimental: Briefly, 50 μl of the extracts at different concentrations (3.12, 6.25, 12.5, 25, 50, 100, and 200 μg/ml) was added to 50 μl of 5.16 mM taurocholic acid and 50 μl of an aqueous solution of cholesterol esterase and incubated for 10 mins at 25°C. Then, 50 μl of p-nitrophenyl butyrate substrate (0.2 mM) was added to the mixture and incubated for 5 mins at 25°C. Cholesterol esterase inhibitory activity was determined by measuring the hydrolysis of p-NPB to p-nitrophenol at 405 nm using an ELISA microplate reader (BK-EL10 C).
Anticholesterol esterase activity is given as IC50 values (the concentrations that inhibited 50% of the hydrolysis of pNPB to p-nitrophenol).

Assay [3] concerns the target T2, porcine pancreatic lipase (Sus scrofa, UniProt P00591).
T2 construct: purchased Sigma-Alrich Chemical Co
T2 sequence (P00591 1-450): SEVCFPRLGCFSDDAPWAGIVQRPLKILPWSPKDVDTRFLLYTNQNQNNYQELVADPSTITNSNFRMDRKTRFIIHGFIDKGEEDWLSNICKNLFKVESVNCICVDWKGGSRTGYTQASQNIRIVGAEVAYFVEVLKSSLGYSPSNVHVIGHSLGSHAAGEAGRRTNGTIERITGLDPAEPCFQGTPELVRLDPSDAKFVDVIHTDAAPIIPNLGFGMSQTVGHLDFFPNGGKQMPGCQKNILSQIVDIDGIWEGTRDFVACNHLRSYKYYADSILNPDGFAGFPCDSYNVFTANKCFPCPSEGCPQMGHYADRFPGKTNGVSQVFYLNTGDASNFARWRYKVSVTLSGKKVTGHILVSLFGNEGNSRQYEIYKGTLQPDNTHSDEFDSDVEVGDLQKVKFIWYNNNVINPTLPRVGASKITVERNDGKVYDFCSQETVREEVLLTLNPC
Put plainly: Pancreatic lipase inhibition. The class given is biochemical. As to conditions: read-out: inhibition percentage of lipase. The method, then: The method described by Kim et al. was used in this assay. […] The mixture was then incubated at 37°C for 37 mins. The reaction was started by the addition of 10 μl of p-nitrophenyl butyrate substrate (10 mM p-NPB) in dimethylformamide.

Several values for one entry are separate records, joined by “and”; a condition that tells them apart may be missing. Equal entries are not always repeated.

With `O=C1O[C@H]([C@@H](O)CO)C(O)=C1O` [ascorbic acid], the “DPPH IC50” value in assay [1] was 71.78 ± 6.37 µg/mL and 71.98 ± 1.21 µg/mL.
For the compound `O.Oc1cc(O)c2c(c1)O[C@H](c1ccc(O)c(O)c1)[C@@H](O)C2` [catechin], the “ABTS IC50” value in “ABTS radical scavenging” was 33.48 ± 2.02 µg/mL.
For the compound `CCCCCCCCCCC[C@@H](C[C@@H]1OC(=O)[C@H]1CCCCCC)OC(=O)[C@H](CC(C)C)NC=O` [orlistat], in assay [2], the IC50 was 110 µM. Moreover, the inhibition at 200 µg/mL in assay [3] was determined as 97.83 ± 0.34%.

For orientation: IC50 means the concentration needed to halve the response being measured. Broadly, the inhibition is the drop in the measured response relative to a control, in per cent.
